The values below come from patent US5506102A (priority 1993, dated 1996).

The test system of test [1] is ER. The test can be described thus: ER transcriptional activity on MMTV-ERE-LUC in HepG2 and HS578T cells. The note with it: data not shown. The class given is cell-based.
In test [2] the target is T1, human androgen receptor (Homo sapiens, UniProt P10275).
T1 sequence (P10275 1-920): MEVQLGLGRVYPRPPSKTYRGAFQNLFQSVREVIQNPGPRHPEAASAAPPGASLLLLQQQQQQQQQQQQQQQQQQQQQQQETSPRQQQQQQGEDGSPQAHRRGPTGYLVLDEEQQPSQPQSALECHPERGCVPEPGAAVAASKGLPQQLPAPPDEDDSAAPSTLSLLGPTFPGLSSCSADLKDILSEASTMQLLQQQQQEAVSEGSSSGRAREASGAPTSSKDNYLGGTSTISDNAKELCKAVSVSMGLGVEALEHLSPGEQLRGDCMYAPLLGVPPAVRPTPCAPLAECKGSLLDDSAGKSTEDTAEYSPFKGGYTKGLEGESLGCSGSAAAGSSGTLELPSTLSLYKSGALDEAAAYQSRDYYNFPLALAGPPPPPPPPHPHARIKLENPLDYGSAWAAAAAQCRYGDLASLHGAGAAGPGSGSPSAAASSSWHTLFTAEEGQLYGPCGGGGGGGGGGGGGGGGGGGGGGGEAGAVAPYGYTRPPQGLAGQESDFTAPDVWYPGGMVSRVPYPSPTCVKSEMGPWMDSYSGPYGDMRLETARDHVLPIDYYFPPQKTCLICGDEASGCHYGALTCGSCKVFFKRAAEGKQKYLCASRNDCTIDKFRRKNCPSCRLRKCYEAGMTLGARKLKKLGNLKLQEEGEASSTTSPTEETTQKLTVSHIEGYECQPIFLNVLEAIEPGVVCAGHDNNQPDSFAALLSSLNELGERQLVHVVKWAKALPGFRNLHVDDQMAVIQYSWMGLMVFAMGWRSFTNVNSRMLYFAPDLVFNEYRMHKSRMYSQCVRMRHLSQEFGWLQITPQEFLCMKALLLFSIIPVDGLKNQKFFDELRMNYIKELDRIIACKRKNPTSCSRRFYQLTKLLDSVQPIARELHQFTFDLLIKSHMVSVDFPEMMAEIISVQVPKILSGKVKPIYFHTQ
The test can be described thus: AR transcriptional activity on MMTV-LUC, CV-1 cells, AR alone. The class given is cell-based. The note with it: FIG. 10. The procedure:
FIGS. 10A-10B are a series of graphs showing CV-1 cells that were transiently transfected with an expression vector for the human androgen receptor (pRShAR) alone, or in combination with phPR-A together with 5 µg/ml of the MMTV-LUC reporter and 5 µg/ml of pCH110 as an internal control. […] The relative luciferase activity is calculated by dividing the normalized luciferase value at a given point by that obtained in the absence of transfected receptor or ligand. […] The data are presented as percent (%) activation, where 100% represents the maximal induction achieved by human androgen receptor at 10^ -8 M DHT. The experimental data represents mean values +/- the average deviation from the mean of quadruplicate estimations;
Cells were seeded in 12-well, 96-well or 10 cm tissue culture plates. […] 20 μg of DNA/ml of transfection buffer were used in each transfection reaction. In this mix, the concentration of the luciferase plasmids and that of the internal control plasmid pCH110 (Pharmacia, Inc.), which contains the gene for the β-galactosidase enzyme, remained constant ([…] of each plasmid DNA), while the receptor plasmid concentration varied as indicated for each experiment. […]

In the case of `CC#C[C@]1(O)CC[C@H]2[C@@H]3CCC4=CC(=O)CCC4=C3[C@@H](c3ccc(C(C)=O)cc3)C[C@@]21C` [ZK112993], the anti-estrogenic activity entry in test [1] (HS578T cells) is “both anti-progestins functioned as anti-estrogens”; in test [1] (HepG2 cells), “neither anti-progestin exhibited any anti-estrogenic activity”. Also, the “effect on DHT-induced AR activity” value in test [2] is listed as “efficient inhibitor of DHT-activated AR”.
